Values quoted from earlier work in patent publication EP1197217A1, “Use of sodium nitroprussiate in obstetrics and gynaecology” (Ibsa Institut Biochimique S.A., priority 2000, dated 2002).
Where “and” joins values, the source holds several entries; their conditions need not be identical. Equal values may be shown once.

Tested on: cervix
Settings: in vivo

O=[N+]([O-])O[C@@H]1CO[C@H]2[C@@H]1OC[C@@H]2O [isosorbide mononitrate]
cumulative median force necessary to dilate the cervix to 8 mm: 40 newtons and 36 newtons
